According to patent US12624396B2, “Methods for alleviating facioscapulohumeral dystrophy (FSHD) by an antisense nucleic acid molecule inhibiting the expression of double homeobox 4 (DUX4)” (Fred Hutchinson Cancer Center, priority 2010, dated 2026):
Entries after “also recorded” stand apart in the source; their conditions may differ.

What was measured:
[1] = tested on: DUX4 mRNA in FSHD fibroblasts; assay: DUX4 mRNA in FSHD fibroblasts with beta-estradiol inducible MyoD, cycloheximide addition and washout; assay type: cell-based, human; details: MyoD induction, 38 hours in differentiation conditions, chx added, FIG. 24
Text: The 3-prime untranslated region (UTR) of the DUX4 mRNA has an unusual exon-intron structure. The translational stop codon is in the first exon, whereas the polyadenylation sequence is in the third exon. The separation of the translational stop codon from the polyadenylation site by two exon-intron junctions would be predicted to make this mRNA subject to translation dependent nonsense mediated decay.
FSHD fibroblasts expressing low amounts of DUX4 mRNA were stably transduced with a beta-estradiol inducible MyoD so that addition of beta-estradiol will convert them to skeletal muscle, which after 96 hours of induction increases the steady-state levels of the DUX4 mRNA and activates expression of the MyoD target Mgn (compare lanes 1 and 2). […] Washout of the chx results in the rapid loss of the DUX4 mRNA, disappearing between 2 and 8 hrs of washout. The loss of DUX4 mRNA is associated with its translation since the DUX4 target PRAME 1 is induced as the DUX4 mRNA disappears.

[2] = tested on: DUX4-fl mRNA in FSHD muscle cells; assay: DUX4-fl mRNA in FSHD muscle cells treated with MAO inhibitors (RT-PCR); assay type: cell-based, human
Text: The monamine oxidase inhibitor pargyline has been reported to inhibit the activity of the LSD1 histone demethylase that demethylates H3K9.
FIG. 22 graphically illustrates that pargyline decreases the amount of DUX4 mRNA in FSHD muscle cells.
Middle panel is a no RT control and bottom panel is a GAPDH loading control.

| Structure (SMILES) | DUX4 mRNA level [1] | abundance of DUX4-fl mRNA ([2]; FSHD muscle cells expressing endogenous DUX4-fl mRNA, quantitative RT-PCR, FIG. 22) | amount of DUX4-fl mRNA ([2]; cultured FSHD muscle cells differentiated 48 hours in differentiation medium with varying amounts of pargyline, RT-PCR, FIG. 23) |
| --- | --- | --- | --- |
| C[C@@H]1C[C@@H]([C@H](O)CC2CC(=O)NC(=O)C2)C(=O)[C@@H](C)C1 [cycloheximide] | accumulation of the DUX4 mRNA; also recorded: significant increase in DUX4 mRNA |  |  |
| C#CCN(C)Cc1ccccc1 [pargyline] |  | suppresses the expression of DUX4 mRNA; also recorded: decreases the abundance of DUX4-fl mRNA in a dose-dependent manner | dose-dependent inhibition of DUX4 mRNA expression |
